Assays:
Cannabinoid receptor 2 [1] = biological target: T1, Cannabinoid receptor 2 (Homo sapiens, UniProt P34972); experiment: Binding affinity to human CB2 receptor
Cannabinoid receptor 1 [2] = biological target: T2, Cannabinoid receptor 1 (Homo sapiens, UniProt P21554); experiment: Binding affinity to human CB1 receptor
Homo sapiens [3] = species on record: Homo sapiens; experiment: Selectivity ratio of Ki for human CB1 receptor to Ki for human CB2 receptor
Cannabinoid receptor 2 [4] = biological target: T1, Cannabinoid receptor 2; experiment: Binding affinity to CB2 receptor (unknown origin)
Cannabinoid receptor 1 [5] = biological target: T2, Cannabinoid receptor 1; experiment: Binding affinity to CB1 receptor (unknown origin)
Cannabinoid receptor 1 [6] = biological target: T2, Cannabinoid receptor 1; experiment: Agonist activity at human CB1 receptor assessed as inhibition of forskolin-induced cAMP production preincubated for 15 mins followed by forskolin challenge measured after 30 mins by HTRF assay; format: functional
Cannabinoid receptor 2 [7] = biological target: T1, Cannabinoid receptor 2; experiment: Agonist activity at human CB2 receptor assessed as inhibition of forskolin-induced cAMP production preincubated for 15 mins followed by forskolin challenge measured after 30 mins by HTRF assay; format: functional
Cannabinoid receptor 2 [8] = biological target: T1, Cannabinoid receptor 2; experiment: Agonist activity at human CB2 receptor expressed in Sf9 membranes assessed as effect on [35S]-GTPgammaS binding after 30 mins by scintillation counting; format: functional, cell membranes
Cannabinoid receptor 2 [9] = biological target: T1, Cannabinoid receptor 2; experiment: Agonist activity at human CB2 receptor transfected in CHO-K1 cells assessed as cAMP change; format: functional, cell-based
Cannabinoid receptor 1 [10] = biological target: T2, Cannabinoid receptor 1; experiment: Agonist activity at human CB1 receptor transfected in CHO-K1 cells assessed as cAMP change; format: functional, cell-based
Homo sapiens [11] = species on record: Homo sapiens; experiment: Selectivity index, ratio of EC50 for human CB1 receptor to EC50 for human CB2 receptor
Cannabinoid receptor 1 [12] = biological target: T3, Cannabinoid receptor 1 (Rattus norvegicus, UniProt P20272); experiment: Displacement of [3H]-CP55940 from CB1 receptor of rat cerebellar membranes by liquid scintillation counting in presence of serine protease inhibitor PMSF; set-up: species or system Cerebellum, Membrane
Cannabinoid receptor 2 [13] = biological target: T4, Cannabinoid receptor 2 (Rattus norvegicus, UniProt Q9QZN9); experiment: Displacement of [3H]-CP55940 from CB2 receptor of rat spleen membranes by liquid scintillation counting in presence of serine protease inhibitor PMSF; format: tissue-based, Membrane
T4 sequence (Q9QZN9 whole entry): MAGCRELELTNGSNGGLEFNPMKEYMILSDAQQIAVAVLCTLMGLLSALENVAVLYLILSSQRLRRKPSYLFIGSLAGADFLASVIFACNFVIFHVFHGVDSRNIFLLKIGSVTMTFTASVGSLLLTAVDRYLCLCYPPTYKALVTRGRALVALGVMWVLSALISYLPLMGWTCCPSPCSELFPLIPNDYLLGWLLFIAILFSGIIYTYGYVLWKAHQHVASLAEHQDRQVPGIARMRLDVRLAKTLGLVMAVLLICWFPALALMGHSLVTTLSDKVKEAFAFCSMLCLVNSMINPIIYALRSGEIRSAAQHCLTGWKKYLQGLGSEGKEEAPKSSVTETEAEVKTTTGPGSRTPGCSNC

Rattus norvegicus = species on record: Rattus norvegicus; experiment: Selectivity ratio of Ki for CB2 receptor of rat spleen membranes to Ki for CB1 receptor of rat cerebellar membranes; format: tissue-based
[14] = Cmax in Sprague-Dawley rat at 10 mg/kg, po by UV-HPLC analysis; format: ADME, organism-based; set-up: dose 10 mg/kg, route oral; details: in vivo
[15] = AUC (0 to infinity) in Sprague-Dawley rat at 10 mg/kg, po by UV-HPLC analysis; format: ADME, organism-based; set-up: time infinity, dose 10 mg/kg, route oral; details: plasma
[16] = Half life in Sprague-Dawley rat at 10 mg/kg, po by UV-HPLC analysis; format: ADME, organism-based; set-up: dose 10 mg/kg, route oral; details: in vivo
Cannabinoid receptor 1 [17] = biological target: T2, Cannabinoid receptor 1; experiment: Agonist activity at CB1 receptor (unknown origin)
Cannabinoid receptor 2 [18] = biological target: T1, Cannabinoid receptor 2; experiment: Displacement of [3H]-CP55940 from human CB2 receptor expressed in HEK293 cells after 90 mins by liquid scintillation counting; format: cell-based
Cannabinoid receptor 1 [19] = biological target: T2, Cannabinoid receptor 1; experiment: Displacement of [3H]-CP55940 from human CB1 receptor expressed in HEK293 cells after 90 mins by liquid scintillation counting; format: cell-based
Cannabinoid receptor 1 [20] = biological target: T3, Cannabinoid receptor 1; experiment: Displacement of [3H]SR141716A from rat brain CB1 receptor by liquid scintillation spectrophotometry
[21] = Selectivity ratio of Ki for rat CB1 receptor to Ki for human CB2 receptor
Cannabinoid receptor 1 [22] = biological target: T2, Cannabinoid receptor 1; experiment: Agonist activity at human CB1 receptor expressed in CHO-K1 cells assessed as inhibition of forskolin-induced cAMP accumulation by TR-FRET assay; format: functional, cell-based
Cannabinoid receptor 2 [23] = biological target: T4, Cannabinoid receptor 2; experiment: Displacement of [3H]-CP55940 from rat CB2 receptor expressed in CHO-K1 cells by liquid scintillation spectrophotometry; format: cell-based
Cannabinoid receptor 2 [24] = biological target: T1, Cannabinoid receptor 2; experiment: Displacement of [3H]-CP55940 from human CB2 receptor expressed in CHO-K1 cells by liquid scintillation counting; format: cell-based
Cannabinoid receptor 1 [25] = biological target: T2, Cannabinoid receptor 1; experiment: Displacement of [3H]-CP55940 from human CB1 receptor expressed in CHO-K1 cells by liquid scintillation counting; format: cell-based
[26] = Displacement of [3H]-CP55940 from cynomolgus monkey CB2 receptor by liquid scintillation counting; set-up: species or system Macaca fascicularis
Cannabinoid receptor 2 [27] = biological target: Cannabinoid receptor 2 (Mus musculus, UniProt P47936); experiment: Displacement of [3H]-CP55940 from mouse CB2 receptor by liquid scintillation counting
Cannabinoid receptor 1 [28] = biological target: T3, Cannabinoid receptor 1; experiment: Binding affinity to rat CB1 receptor
Cannabinoid receptor 2 [29] = biological target: T1, Cannabinoid receptor 2; experiment: Agonist activity at human CB2 receptor expressed in CHO-K1 cells assessed as inhibition of forskolin-induced cAMP accumulation by TR-FRET assay; format: functional, cell-based

T1 sequence (P34972 whole entry): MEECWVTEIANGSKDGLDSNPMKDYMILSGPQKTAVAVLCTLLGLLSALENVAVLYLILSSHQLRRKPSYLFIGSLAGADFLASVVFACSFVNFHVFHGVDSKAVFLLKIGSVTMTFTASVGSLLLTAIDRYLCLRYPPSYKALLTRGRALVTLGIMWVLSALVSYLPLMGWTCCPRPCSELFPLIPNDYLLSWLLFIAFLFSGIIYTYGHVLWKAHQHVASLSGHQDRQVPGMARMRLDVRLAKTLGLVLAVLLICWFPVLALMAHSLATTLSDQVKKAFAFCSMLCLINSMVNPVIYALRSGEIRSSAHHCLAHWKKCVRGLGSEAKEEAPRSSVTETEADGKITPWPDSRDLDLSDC
T2 sequence (P21554 whole entry): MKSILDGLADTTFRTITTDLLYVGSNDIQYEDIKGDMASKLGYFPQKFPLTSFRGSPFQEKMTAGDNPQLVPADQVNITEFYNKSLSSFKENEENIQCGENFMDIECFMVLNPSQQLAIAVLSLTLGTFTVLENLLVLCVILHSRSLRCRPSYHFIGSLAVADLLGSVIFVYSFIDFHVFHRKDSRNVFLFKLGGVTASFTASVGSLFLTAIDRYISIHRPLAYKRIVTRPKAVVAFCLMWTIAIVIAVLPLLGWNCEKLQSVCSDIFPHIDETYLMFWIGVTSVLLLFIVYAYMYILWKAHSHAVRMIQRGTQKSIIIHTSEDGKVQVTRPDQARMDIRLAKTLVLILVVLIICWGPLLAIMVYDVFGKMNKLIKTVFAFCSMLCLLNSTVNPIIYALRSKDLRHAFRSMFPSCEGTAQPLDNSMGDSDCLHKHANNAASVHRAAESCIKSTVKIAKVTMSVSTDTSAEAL
T3 sequence (P20272 whole entry): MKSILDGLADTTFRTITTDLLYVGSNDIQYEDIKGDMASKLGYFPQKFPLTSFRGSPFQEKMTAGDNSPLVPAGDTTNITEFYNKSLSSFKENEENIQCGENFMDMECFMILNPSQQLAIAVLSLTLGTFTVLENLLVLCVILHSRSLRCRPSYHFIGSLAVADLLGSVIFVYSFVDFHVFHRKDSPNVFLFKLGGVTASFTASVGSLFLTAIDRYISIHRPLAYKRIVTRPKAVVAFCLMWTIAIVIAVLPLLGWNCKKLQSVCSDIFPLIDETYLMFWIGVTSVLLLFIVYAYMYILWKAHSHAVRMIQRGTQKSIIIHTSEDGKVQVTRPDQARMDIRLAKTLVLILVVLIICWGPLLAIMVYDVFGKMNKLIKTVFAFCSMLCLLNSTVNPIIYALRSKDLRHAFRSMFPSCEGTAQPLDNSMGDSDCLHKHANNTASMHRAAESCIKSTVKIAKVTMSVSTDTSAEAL
Cannabinoid receptor 2 (Mus musculus, UniProt P47936), sequence (P47936 whole entry): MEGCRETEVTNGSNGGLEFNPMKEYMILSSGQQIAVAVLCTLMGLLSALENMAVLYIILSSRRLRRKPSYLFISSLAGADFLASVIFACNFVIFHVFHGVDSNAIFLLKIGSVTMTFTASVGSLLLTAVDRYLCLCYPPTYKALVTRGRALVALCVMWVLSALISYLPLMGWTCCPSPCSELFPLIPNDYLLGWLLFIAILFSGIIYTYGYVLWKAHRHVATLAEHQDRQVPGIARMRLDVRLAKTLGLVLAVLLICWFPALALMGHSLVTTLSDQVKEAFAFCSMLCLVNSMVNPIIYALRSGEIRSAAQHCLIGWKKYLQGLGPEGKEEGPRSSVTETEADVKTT

`CCCCC/C=C\C/C=C\C/C=C\C/C=C\CCCCOC(CO)CO` showed a Ki (Cannabinoid receptor 2 [1]) of 3000 nM.
For `CCCCCCC(C)(C)c1cc(O)c([C@H]2CC(=O)[C@H]3C[C@@H]2C3(C)C)c(OC(=O)/C=C/C(=O)O)c1` [PRS-211375], the Ki (Cannabinoid receptor 1 [2]) was 334 nM, the Ki (Cannabinoid receptor 2 [1]) was 9 nM and the Ratio Ki (Homo sapiens [3]) was 37.
With `COc1cccc2c(C(=O)N[C@@H]3C(C)(C)[C@@H]4CC[C@@]3(C)C4)cn(CCN3CCOCC3)c12` the Ki (Cannabinoid receptor 2 [4]) was 11 nM and the Ki (Cannabinoid receptor 1 [5]) was 245 nM.
For `COc1ccc(-c2nnc(NC(=O)C(C)(C)S(=O)(=O)C3CCOCC3)[nH]2)cc1`, the EC50 (Cannabinoid receptor 1 [6]) was over 20 µM.
In the case of `FC1(F)CCN(Cc2nc(-c3cccc(C(F)(F)F)c3)n3ccccc23)CC1`, the EC50 (Cannabinoid receptor 2 [7]) is reported as 17 nM.
`Cc1c(C(=O)c2cccc(Cl)c2Cl)c2ccsc2n1CCN1CCOCC1` gave an EC50 (Cannabinoid receptor 2 [8]) of under 100 nM.
For `CN(C1CCOCC1)C(C)(C)C(=O)Nc1cc(C(C)(C)CO)no1`, the EC50 (Cannabinoid receptor 1 [6]) was over 50 µM.
For `CCC(C)Cn1c(C(C)(C)C)nc2cc(S(=O)(=O)c3ccnc(F)c3)ccc21` (configuration not stated), the EC50 (Cannabinoid receptor 2 [9]) was 0.26 nM, the EC50 (Cannabinoid receptor 1 [10]) was over 10 µM and the Ratio EC50 (Homo sapiens [11]) was over 38000.
`Clc1ccc(-c2nc(N3CCCCC3)c3ccccc3n2)c(Cl)c1` gave a Ki (Cannabinoid receptor 2 [7]) of under 1000 nM.
For `Cc1ccc2c(c1)Cc1c(C(=O)NN3CCCCC3)nn(-c3ccc(Cl)cc3Cl)c1-2`, the Ki (Cannabinoid receptor 2 [4]) was 0.037 nM.
For `CCCCC/C=C\C/C=C\C/C=C\C/C=C\CCCC(=O)NCCCl`, the Ki (Cannabinoid receptor 1 [12]) was 1.4 nM, the Ki (Cannabinoid receptor 2 [13]) was over 2000 nM and the Ratio Ki (Rattus norvegicus) was over 1430.
`CC(C)(CO)NC(=O)c1nn(-c2ccc(Cl)cc2)c2c1C1CCC2C1` (configuration not stated) showed a Cmax [14] of 1950 ng/mL, an AUC(0-inf) [15] of 12000 ng·h/mL and a half-life [16] of 288 min.
In the case of `CCc1c(C)cc(C(=O)NC2(C(=O)O)CCCCC2)c(=O)n1Cc1ccc(F)cc1` [S-777469], the Ki (Cannabinoid receptor 1 [17]) is reported as 4.6 µM.
Compound `O=C(Nc1sc2c(c1C(=O)N1CCC1)CC1CCC2O1)c1c(F)cccc1C(F)(F)F` (configuration not stated) has a Ratio Ki (Homo sapiens [3]) of 10.
`CC(C)(CO)c1cc(NC(=O)C(C)(C)S(=O)(=O)C2CCOCC2)on1` gave an EC50 (Cannabinoid receptor 1 [6]) of over 50 µM.
In the case of `CCNC(=O)c1c(NC(=O)C23CC4CC(CC(C4)C2)C3)sc2c1CCOC2`, the EC50 (Cannabinoid receptor 2 [18]) is reported as 21 nM and the EC50 (Cannabinoid receptor 1 [19]) is reported as over 1.5 nM.
Compound `CC(=O)Oc1cc(O[C@H](C)CCCc2ccccc2)cc2c1[C@@H]1C[C@H](O)CC[C@H]1[C@H](C)N2` [LEVONANTRADOL] has a Ki (Cannabinoid receptor 1 [20]) of 2.9 nM.
`COCCN1CC(C)(C)S/C1=N\C(=O)c1cc(Cl)ccc1OC` showed a Ratio Ki (Homo sapiens [3]) of 10.
`C=C1CC[C@@H]2[C@@H](C1)c1c(OC)cc(C(C)(C)CCCCCC)cc1OC2(C)C` gave a Ratio Ki (Homo sapiens [3]) of over 1000.
Work on `CCCC(C)(C)c1ccc2c(c1)OC(C)(C)[C@@H]1CC=C(C)C[C@@H]21` yielded a Ratio Ki [21] of 200.
With `O=S(=O)(c1ccc2c(c1)C1C3CCC(C3)C1C(c1ccccc1)N2)N1CCOCC1` (configuration not stated) the EC50 (Cannabinoid receptor 1 [22]) was over 10000 nM.
For `Cc1c2n(c(=O)c3cc(OC(=O)C(C)(C)C)cc(OC(=O)C(C)(C)C)c13)CCCC2`, the Ki (Cannabinoid receptor 2 [23]) was 2.4 nM, the Ki (Cannabinoid receptor 2 [24]) was 6.8 nM and the Ki (Cannabinoid receptor 1 [25]) was 2630 nM. For the same compound, the Ki [26] was 5.4 nM, the Ki (Cannabinoid receptor 2 [27]) was 4.8 nM and the Ratio Ki (Homo sapiens [3]) was 450.
For `CC1OCc2sc(NC(=O)C3C(C)(C)C3(C)C)c(C(=O)N3CC(F)(F)C3)c21` (configuration not stated), the Ratio Ki (Homo sapiens [3]) was 10.
Compound `CC(C)(C)NC(=O)c1nn(-c2ccc(Cl)cc2)c2c1C1CCC2C1` (configuration not stated) has a Cmax [14] of 131 ng/mL, an AUC(0-inf) [15] of 1550 ng·h/mL and a half-life [16] of 438 min.
`CCCCCCC(C)(C)c1cc(O)c2c(c1)OC(C)(C)[C@@H]1CC=C(CO)C[C@@H]21` showed a Ki (Cannabinoid receptor 1 [2]) of 0.73 nM.
In the case of `CCCCCc1ccc2c(c1)OC(C)(C)[C@@H]1CC=C(C)C[C@@H]21`, the Ki (Cannabinoid receptor 2 [1]) is reported as 32 nM, the Ki (Cannabinoid receptor 1 [28]) is reported as over 10 µM and the Ratio Ki [21] is reported as over 312.
With `O=C(NC1CCCC1)c1ccc2c(c1)N(S(=O)(=O)c1ccc(F)cc1)CCS2` the EC50 (Cannabinoid receptor 2 [29]) was 1 nM and the EC50 (Cannabinoid receptor 1 [22]) was 10 nM.

Reference: ChEMBL document CHEMBL3232786, “Therapeutic utility of cannabinoid receptor type 2 (CB(2)) selective agonists” (J Med Chem, 2013)
